Values quoted from earlier work, collected in patent US7109171B2, “Methods for treating FSH related conditions with GnRH antagonists” (Praecis Pharmaceuticals Inc., priority 2000, dated 2006).
Square brackets hold non-standard residues; d marks the D form. Peptide text beside a SMILES is read from it. dPhe(4-Cl) = N[C@H](Cc1ccc(Cl)cc1)C(=O)O; d2Nal = N[C@H](Cc1ccc2ccccc2c1)C(=O)O; dCit = NC(=O)NCCC[C@@H](N)C(=O)O; d3Pal = N[C@H](Cc1cccnc1)C(=O)O

Assays:
[1] = test system: FSH; conditions: single bolus injection
[2] = test system: LH; conditions: in vivo

Compound | effect on FSH levels [1] | effect on LH levels [2]
Nal-Glu | did not significantly affect | reduced
CC(=O)N[C@H](Cc1ccc2ccccc2c1)C(=O)N[C@H](Cc1ccc(Cl)cc1)C(=O)N[C@H](Cc1cccnc1)C(=O)N[C@@H](CO)C(=O)N[C@@H](Cc1ccc(O)cc1)C(=O)N[C@H](CCCNC(N)=O)C(=O)N[C@@H](CC(C)C)C(=O)N[C@@H](CCCNC(=N)N)C(=O)N1CCC[C@H]1C(=O)N[C@H](C)C(N)=O [Cetrorelix] (Ac-[d2Nal][dPhe(4-Cl)][d3Pal]SY[dCit]LRP[dA]-NH2) | did not significantly affect | reduced
